Laboratory results published in US20260216109A1, “TREATMENT OF SKIN DISORDERS WITH SHORT CHAIN FATTY ACIDS” (Temple University-Of The Commonwealth System of Higher …, priority 2023, published 2026).

Assays:
[1] = system: TNF-α; test: Multiplex (MSD V-PLEX) cytokine release, InflammaSkin: TNF-α; assay type: cell-based, human; details: Example 1; Day 7 supernatant; SCFA (45 μg/mL Ca-propionate + 1 mM Ca-/Mg-butyrate) systemic, 0.05% Betamethasone topical; vs untreated InflammaSkin
Description: (§1) A total of 16 biopsies of 15 mm diameter were produced from a single donor. Two NativeSkin® models with 12/15 mm silicon rings were produced from the biopsies according to standard procedures in place, and cultured under cell culture conditions (37° C., 5% CO2, max. humidity) for 7 days with 2 mL of standard NativeSkin® medium renewed every day. Fourteen PSO-InflammaSkin® models with 12/15 mm silicon rings were produced by inducing in situ activation and Th17/Th1 polarization of skin resident T cells with a proprietary cocktail, and cultured under cell culture conditions (37° C., 5% CO2, max. humidity) for 7 days with 2 mL of PSO-InflammaSkin® culture medium renewed every day.
(§2) From Day 1 to Day 6, models were systemically treated with 1 μM Otezla or Short Chain Fatty Acids (SCFAs), or topically treated with positive control 0.05% Betamethasone
(§3) In these experiments, the SCFAs administered were 45 μg/mL of Ca-propionate and 1 mM mixture of salts (Ca-butyrate and Mg-butyrate).
At Day 7, supernatants were collected and stored at −80° C. and skin models of all conditions were carefully unmolded. Skin biopsies were re-punched to eliminate the area under the silicon ring, fixed in 10% buffered formalin and processed for paraffin wax embedding.
Human pro-inflammatory cytokines released in the supernatant were quantified using the V-PLEX Human IL-17A Kit (MesoScale Discovery, reference: K151RFD-1) and V-PLEX Human TNFα Kit (MesoScale Discovery, reference: K151QWD-1). Values are expressed in pg/mL. For each condition, single values, mean and SEM were plotted using GraphPad Prism. Statistical analysis was performed using a One Way ANOVA test.
PSO-InflammaSkin® models were cultured and treated as described in Example 1. In these experiments, the SCFAs administered were 45 μg/mL of Ca-propionate and 1 mM mixture of salts (Ca-butyrate and Mg-butyrate).
Human pro-inflammatory cytokines released in the supernatant were quantified using the V-PLEX Human IL-17A Kit (MesoScale Discovery, reference: K151RFD-1) and V-PLEX Human custom Pro-inflammatory. Plate 1 comprised Proinflammatory Panel 1 (human) kit reference K15049 (panel IFN-γ and TNF-α). Plate 2 comprised TH17 Panel 1 (human) kit reference K15049 (panel IL-17A Gen B, IL-21, IL-22, IL-23, IL-27, IL-31, MIP-3α).
(§4) Samples were diluted four times for plate 2 and two times for plate 1. Samples and standards were assessed in duplicate. Plates were read on MesoScale Discovery Quickpleax SQ 120 plate reader and values expressed in pg/mL.
A statistical analysis was performed. Each condition was compared to the untreated InflammaSkin® condition. First, the distribution's normality of the two compared group was assessed. […] If the two distributions were normal, the homogeneity of variances was assessed using a Fisher test on the variances. […]

[2] = system: IL-17A; test: Multiplex (MSD V-PLEX) cytokine release, InflammaSkin: IL-17A; assay type: cell-based, human; details: Example 1; Day 7 supernatant; 1 μM Otezla or SCFA (45 μg/mL Ca-propionate + 1 mM Ca-/Mg-butyrate) systemic, 0.05% Betamethasone topical; vs untreated InflammaSkin
Description: as §1, §2, §3
At Day 7, supernatants were collected and stored at −80° C. and skin models of all conditions were carefully unmolded. […]
Human pro-inflammatory cytokines released in the supernatant were quantified using the V-PLEX Human IL-17A Kit (MesoScale Discovery, reference: K151RFD-1) and V-PLEX Human TNFα Kit (MesoScale Discovery, reference: K151QWD-1). […]
(§5) Human pro-inflammatory cytokines released in the supernatant were quantified using the V-PLEX Human IL-17A Kit (MesoScale Discovery, reference: K151RFD-1) and V-PLEX Human custom Pro-inflammatory. […]
as §4
(§6) A statistical analysis was performed. […] First, the distribution's normality of the two compared group was assessed. […] If the two distributions were normal, the homogeneity of variances was assessed using a Fisher test on the variances. […]

[3] = system: IL-27; test: Multiplex (MSD V-PLEX) cytokine release, InflammaSkin: IL-27; assay type: cell-based, human; details: Example 2; 0.05% Betamethasone topical; vs untreated InflammaSkin
Description: A total of 16 biopsies of 15 mm diameter were produced from a single donor. Two NativeSkin® models with 12/15 mm silicon rings were produced from the biopsies according to standard procedures in place, and cultured under cell culture conditions (37° C., 5% CO2, max. humidity) for 7 days with 2 mL of standard NativeSkin® medium renewed every day. Fourteen PSO-InflammaSkin® models with 12/15 mm silicon rings were produced by inducing in situ activation and Th17/Th1 polarization of skin resident T cells with a proprietary cocktail, and cultured under cell culture conditions (37° C., 5% CO2, max. humidity) for 7 days with 2 mL of PSO-InflammaSkin® culture medium renewed every day. […]
as §5, §4, §6

[4] = system: imiquimod (IMQ)-induced psoriasis model mice; test: Transepidermal water loss (TEWL) on back skin, IMQ-induced psoriasis model in mice; assay type: in vivo, mouse; details: Example 4, day 5, Apremilast 25 mg/kg BID p.o., SCFA fixed dose BID p.o., Etanercept 10 mg/kg Q3D s.c.
Description: Topical application of IMQ, a TLR7/8 ligand and potent immune activator induced and exacerbated psoriasis in mice. The mouse IMQ-induced psoriasis (IMQ Ps) model was initiated by a repeated topical application of Aldara© cream (containing 5% IMQ) over 6 consecutive days. Female Balb/c mice (9 weeks of age at reception, ordered with 20 g, Charles River, Sulzfeld, Germany; n=10 mice/group, exception healthy controls n=4) received daily a topical application of 62.5 mg of commercially available IMQ cream (5% Aldara©) on the beforehand (day −1) shaved (~2 cm×3 cm), depilated (Pilka© cream) back skin, and 7 mg on the outer right ear skin for 6 consecutive days, translating in a daily dose of approximately 3.5 mg IMQ. Healthy control mice were included in the study and were treated with vehicle cream (Vaseline; Bombastus-Werke AG) only instead of IMQ. Additionally, an IMQ disease control group was also included.
Physiological parameter transepidermal water loss (TEWL; in g/m^2/h) was tested and evaluated on back skin at day 5 by a Tewameter (TM300, Courage and Khazaka, Cologne, Germany) during the IMQ psoriasis experiment. TEWL is a common examined parameters for the assessment of a disturbed skin function present in psoriatic skin. TEWL may be used a diagnostic marker in the clinics to accurately assess the disease severity in psoriasis.

| Molecule | TNF-α levels decreased by [1] | IL-17A levels decreased by [2] | increase of IL-27 cytokine secretion [3] | transepidermal water loss (TEWL) [4] |
| --- | --- | --- | --- | --- |
| C[C@H]1C[C@H]2[C@@H]3CCC4=CC(=O)C=C[C@]4(C)[C@@]3(F)[C@@H](O)C[C@]2(C)[C@@]1(O)C(=O)CO [Betamethasone] | ~ 40% | about 70% | about 30% |  |
| Etanercept |  |  |  | did not show significant effects |
